Data on one compound can be found in US20240156764A1, “INHIBITION OF URACIL DNA GLYCOSYLASE IN THE OPEN CONFORMATION” (CASE WESTERN RESERVE UNIVERSITY, priority 2022, published 2024).

Bounds are passed on as bounds.

The test addresses human UDG (Homo sapiens, UniProt P13051). The test can be described thus: Microscale thermophoresis (MST) binding. The arrangement: Bacterially expressed and purified full-length human UDG; made in house. On the procedure:
The data for thermophoresis was recorded at 20° C. using the blue LED at 20% and IR-Laser at 40%. The isotherm derived from the raw data and fitted according to the law of mass action. […] Then 2 μL of 10× Sypro dye and 2 μL of ddH20 (Applied biosystems cat #4461141) were added. Monitoring of fluorescence took place for 2 hr (Bioraid CFX96, Hex filter, 25-97° C., 1.6° C./2 min). Negative (−) derivative RFU raw data and plots from the machine were obtained and analyzed. […] Melting temperature (Tm) value was taken directly from the midpoint on the −dRFU/dt vs. temperature graph. Each point on the graph represents an average of three data sets. Y error bars represent the standard deviation.
Bacterially expressed and purified full-length human UDG was fluorescently labeled with Atto488 NHS ester according to the manufacturer's protocol. […] The samples were loaded into silica premium capillaries (Polymicro Technologies) after incubation at room temperature for 15 min measurements were performed at 20° C., by using 20% LED power and 40% IR-laser power. Measurements were also carried out on 40 and 60% IR-Laser power for comparison. The raw data were exported to GraphPad Prism8 software, KD value was obtained by data fitting with a one-site specific binding model.
A general note: MST reads how a fluorescent partner responds to local heating, with and without ligand.

human UDG, sequence (P13051 whole entry): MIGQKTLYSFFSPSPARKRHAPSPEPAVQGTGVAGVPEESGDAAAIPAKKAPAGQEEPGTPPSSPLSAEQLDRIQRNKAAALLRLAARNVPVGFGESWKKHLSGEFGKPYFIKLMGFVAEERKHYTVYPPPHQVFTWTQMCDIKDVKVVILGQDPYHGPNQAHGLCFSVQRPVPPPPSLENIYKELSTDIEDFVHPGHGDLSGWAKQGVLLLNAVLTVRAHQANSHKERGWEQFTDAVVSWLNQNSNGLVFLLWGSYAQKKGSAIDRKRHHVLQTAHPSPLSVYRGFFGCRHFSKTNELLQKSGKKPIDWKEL

On to `N.N.N.O=C(O)C1=CC(=C(c2ccc(O)c(C(=O)O)c2)c2ccc(O)c(C(=O)O)c2)C=CC1=O` [ATA NH4 salt], for which the Kd (MST, 100 nM labelled UDG, estimated, read-out: binding dissociation constant (KD)) is under 700 nM. Besides, the “direct binding to the purified human UDG protein” value (more soluble ATA NH4 salt form) is reported as “significant improvement in direct binding”.

In general, Kd refers to the equilibrium constant for the complex coming apart.
